Measured values as given in patent US10703757B2, “Compounds and methods for CDK8 modulation and indications therefor” (Plexxikon Inc., priority 2016, dated 2020).

Tested on: CDK8 (phosphorylation of STAT1 at serine 727 in A549 cells)
Test: Cell based Phospho-STAT1 assay (IFNγ-stimulated A549 cells, AlphaLISA)
Conditions: Homo sapiens, A549, A549 cells, phospho-STAT1 after IFNγ stimulation
In short: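 A549 cells given serial compound dilutions for 1 h at 37 °C, then stimulated with IFNγ at 10 ng/mL final for 30 min. Lysate STAT1 Ser727 phosphorylation measured by AlphaLISA; % inhibition vs stimulated/unstimulated DMSO controls, IC50 by nonlinear regression.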

Structure (SMILES) | IC50
COC(=O)C1(C)CCN(c2cccc3ncc(-c4ccc(-c5cnn(C)c5)cc4)n23)CC1 [Compound P-0399, methyl 4-methyl-1-(3-(4-(1-methyl-1H-pyrazol-4-yl)phenyl)imidazo[1,2-a]pyridin-5-yl)piperidine-4-carboxylate] | 1000 to 10000 nM
Cn1cc(-c2ccc(-c3cnc4cccc(OC5CCC(F)(F)CC5)n34)cc2)cn1 [Compound P-0372, 5-((4,4-difluorocyclohexyl)oxy)-3-(4-(1-methyl-1H-pyrazol-4-yl)phenyl)imidazo[1,2-a]pyridine] | 1000 to 10000 nM
Cn1cc(-c2ccc(-c3cnc4cccc(N5CCNCC5)n34)cc2)cn1 [Compound P-0393, 3-(4-(1-methyl-1H-pyrazol-4-yl)phenyl)-5-(piperazin-1-yl)imidazo[1,2-a]pyridine] | 1000 to 10000 nM
Cn1cc(-c2ccc(-c3c[nH]c4ncc(Br)c(N5CCC(C#N)CC5)c34)cc2)cn1 [Compound P-0432, 1-[5-bromo-3-[4-(1-methylpyrazol-4-yl)phenyl]-H-pyrrolo[2,3-b]pyridin-4-yl]piperidine-4-carbonitrile] | 1000 to 10000 nM
O=C(NCc1ccc(-c2cnc3cccc(N4CCC5(CCNC5=O)CC4)n23)cc1)c1cccnc1 [Compound P-0449, N-(4-(5-(1-oxo-2,8-diazaspiro[4.5]decan-8-yl)imidazo[1,2-a]pyridin-3-yl)benzyl)nicotinamide] | 1000 to 10000 nM
FC(F)n1cc(-c2ccc(-c3cnc4cccc(OC5CCNCC5)n34)cc2)cn1 [Compound P-0305, 3-(4-(1-(difluoromethyl)-1H-pyrazol-4-yl)phenyl)-5-(piperidin-4-yloxy)imidazo[1,2-a]pyridine] | 1000 to 10000 nM
CS(=O)(=O)N1CCC(Oc2cccc3ncc(-c4ccc(-c5cnn(C(F)F)c5)cc4)n23)CC1 [Compound P-0298, 3-(4-(1-(difluoromethyl)-1H-pyrazol-4-yl)phenyl)-5-((1-(methylsulfonyl)piperidin-4-yl)oxy)imidazo[1,2-a]pyridine] | 1000 to 10000 nM
CC(C)(O)C#Cc1cccn2ncc(-c3ccc(Oc4ccccc4)cc3)c12 [Compound P-0410, 2-methyl-4-(3-(4-phenoxyphenyl)pyrazolo[1,5-a]pyridin-4-yl)but-3-yn-2-ol] | 1000 to 10000 nM

Further lines, results first:

IC50 | Structure (SMILES)
0.1 to 100 nM | N#CCCCn1cc(-c2ccc(-c3cnn4ccnc(C5=CCC(C#N)CC5)c34)cc2)cn1 (stereo not shown) [Compound P-0009, 4-(3-(4-(1-(3-cyanopropyl)-1H-pyrazol-4-yl)phenyl)pyrazolo[1,5-a]pyrazin-4-yl)cyclohex-3-ene-1-carbonitrile]
100 to 1000 nM | Cn1cc(-c2ccc(-c3cnn4cccc(C5=CCSCC5)c34)cc2)cn1 [Compound P-0301, 4-(3,6-dihydro-2H-thiopyran-4-yl)-3-(4-(1-methyl-1H-pyrazol-4-yl)phenyl)pyrazolo[1,5-a]pyridine]
100 to 1000 nM | CC(=O)NC(C)(C)C#Cc1cccn2ncc(-c3ccc(-c4cnn(C)c4)cc3)c12 [Compound P-0307, N-(2-methyl-4-(3-(4-(1-methyl-1H-pyrazol-4-yl)phenyl)pyrazolo[1,5-a]pyridin-4-yl)but-3-yn-2-yl)acetamide]
0.1 to 100 nM | O=C1Nc2ccccc2C12CCN(c1cccc3ncc(-c4ccc(-c5cnn(C(F)F)c5)cc4)n13)CC2 [Compound P-0441, 1′-(3-(4-(1-(difluoromethyl)-1H-pyrazol-4-yl)phenyl)imidazo[1,2-a]pyridin-5-yl)spiro[indoline-3,4′-piperidin]-2-one]
1000 to 10000 nM | N#CC1CCN(c2cccn3ncc(-c4ccc(-c5nc(C(F)(F)F)no5)cc4)c23)CC1 [Compound P-0424, 1-(3-(4-(3-(trifluoromethyl)-1,2,4-oxadiazol-5-yl)phenyl)pyrazolo[1,5-a]pyridin-4-yl)piperidine-4-carbonitrile]
0.1 to 100 nM | Cn1cc(-c2ccc(-c3cnc4[nH]cc(Cl)c4c3N3CCC(C#N)CC3)cc2)cn1 [Compound P-0360, 1-(3-chloro-5-(4-(1-methyl-1H-pyrazol-4-yl)phenyl)-1H-pyrrolo[2,3-b]pyridin-4-yl)piperidine-4-carbonitrile]
0.1 to 100 nM | CC(C)(O)C#Cc1cccn2ncc(-c3ccc(-c4cnn(C(F)F)c4)cc3)c12 [Compound P-0370, 4-(3-(4-(1-(difluoromethyl)-1H-pyrazol-4-yl)phenyl)pyrazolo[1,5-a]pyridin-4-yl)-2-methylbut-3-yn-2-ol]
100 to 1000 nM | CCOC(=O)C1CC=C(c2cccn3ncc(-c4ccc(-c5cnn(C)c5)cc4)c23)CC1 (stereo not shown) [Compound P-0446, ethyl 4-(3-(4-(1-methyl-1H-pyrazol-4-yl)phenyl)pyrazolo[1,5-a]pyridin-4-yl)cyclohex-3-ene-1-carboxylate]
100 to 1000 nM | CC(C)(C)n1ncc2cc(-c3cnc4[nH]ccc4c3C3=CCC(C#N)CC3)ccc21 (stereo not shown) [Compound P-0344, 4-(5-(1-(tert-butyl)-1H-indazol-5-yl)-1H-pyrrolo[2,3-b]pyridin-4-yl)cyclohex-3-ene-1-carbonitrile]
100 to 1000 nM | Cn1cc(-c2ccc(-c3cnc4cccc(N5CCC(O)CC5)n34)cc2)cn1 [Compound P-0397, 1-(3-(4-(1-methyl-1H-pyrazol-4-yl)phenyl)imidazo[1,2-a]pyridin-5-yl)piperidin-4-ol]
0.1 to 100 nM | CC1(C#N)CCN(c2cccn3ncc(-c4ccc(-c5cnn(C(F)F)c5)cc4)c23)CC1 [Compound P-0404, 1-[3-[4-[1-(difluoromethyl)pyrazol-4-yl]phenyl]pyrazolo[1,5-a]pyridin-4-yl]-4-methyl-piperidine-4-carbonitrile]
100 to 1000 nM | Cn1cc(-c2ccc(-c3cnc4ccc(C#N)c(N5CCC(C#N)CC5)n34)cc2)cn1 [Compound P-0339, 5-(4-cyanopiperidin-1-yl)-3-(4-(1-methyl-1H-pyrazol-4-yl)phenyl)imidazo[1,2-a]pyridine-6-carbonitrile]
0.1 to 100 nM | Cn1cc(C#Cc2cnn3cccc(C4=CCC(C#N)CC4)c23)cn1 (stereo not shown) [Compound P-0433, 4-[3-[2-(1-methylpyrazol-4-yl)ethynyl]pyrazolo[1,5-a]pyridin-4-yl]cyclohex-3-ene-1-carbonitrile]
0.1 to 100 nM | Cn1cc(-c2ccc(-c3cnc4cccc(C#CC(C)(C)O)n34)cc2)cn1 [Compound P-0375, 2-methyl-4-(3-(4-(1-methyl-1H-pyrazol-4-yl)phenyl)imidazo[1,2-a]pyridin-5-yl)but-3-yn-2-ol]
0.1 to 100 nM | CNC(=O)C1CC=C(c2cccn3ncc(-c4ccc(-c5cnn(C)c5)cc4)c23)CC1 (stereo not shown) [Compound P-0442, N-methyl-4-(3-(4-(1-methyl-1H-pyrazol-4-yl)phenyl)pyrazolo[1,5-a]pyridin-4-yl)cyclohex-3-ene-1-carboxamide]

Tested on: CDK8 (TCF/LEF luciferase reporter in HCT116 cells)
Test: Cell based TCF/LEF reporter assay (HCT116+TCF/LEF luciferase)
Conditions: Homo sapiens, HCT-116, 24 h
From the text: Determine Inhibitor Activity Against CDK8 in Cell Based TCF/LEF Reporter Assay
The colorectal carcinoma cell line HCT116 was stably transduced with lentivirus encoding the TCF/LEF promoter upstream of a luciferase reporter gene (Qiagen) and single cell clones expressing this construct (referred to as HCT116+TCF/LEF) were isolated. HCT116 express endogenous mutant β-catenin^3, resulting in up-regulation of transcription through the TCF/LEF promoter. Expression of the TCF/LEF reporter construct in HCT116 results in constitutive expression of luciferase. Treatment of the cells with inhibitors of components of the β-catenin signaling pathway (such as CDK8) results in decreased expression of luciferase. The assay is performed as follows. The HCT116+TCF/LEF cell line is seeded in a 96 well plate in 50 μL of culture media at 1×10^4 cells/well and incubated at 37° C. overnight. Serial dilutions of compounds (in total volume of 50 μL culture media) are added to the cells and incubated at 37° C. for 24 hours. 4 wells of DMSO treated cells serve as high controls and cells treated with 10 uM of the reference compound CCT251545 (a known CDK8 inhibitor)^4 serve as low controls. The viability of the cells is assayed by the addition of […] reagent (Promega) followed by 30 minute incubation at 37° C. and quantification of the fluorescent signal (Ex400/Em505). The luciferase expression is then assayed by the addition of 25 μL ONE-Glo reagent (Promega) followed by 10 minute incubation at room temperature and quantification of the luminescence signal. The luminescence signal is normalized to the fluorescence signal to correct for any loss in cell viability over the 24 hour compound incubation period. The percentage inhibition at individual concentrations relative to high and low controls is calculated. The data are analyzed by using nonlinear regression to generate IC50 values.

IC50 | Structure (SMILES)
0.1 to 100 nM | N#CCCCn1cc(-c2ccc(-c3cnn4ccnc(C5=CCC(C#N)CC5)c34)cc2)cn1 (stereo not shown) [Compound P-0009, 4-(3-(4-(1-(3-cyanopropyl)-1H-pyrazol-4-yl)phenyl)pyrazolo[1,5-a]pyrazin-4-yl)cyclohex-3-ene-1-carbonitrile]
1000 to 10000 nM | N#CC1CCN(c2cccn3ncc(-c4ccc(S(=O)(=O)N5CCCCC5)cc4)c23)CC1 [Compound P-0256, 1-(3-(4-(piperidin-1-ylsulfonyl)phenyl)pyrazolo[1,5-a]pyridin-4-yl)piperidine-4-carbonitrile]
100 to 1000 nM | CC(C)(C#Cc1cccn2ncc(-c3ccc(N4CCOCC4)c(F)c3)c12)C(=O)O [Compound P-0092, 4-(3-(3-fluoro-4-morpholinophenyl)pyrazolo[1,5-a]pyridin-4-yl)-2,2-dimethylbut-3-ynoic acid]
100 to 1000 nM | N#CC1CC=C(c2c(-c3ccc4c(cnn4CC4(C(=O)O)CC4)c3)cnc3[nH]ccc23)CC1 (stereo not shown) [Compound P-0108, 1-((5-(4-(4-cyanocyclohex-1-en-1-yl)-1H-pyrrolo[2,3-b]pyridin-5-yl)-1H-indazol-1-yl)methyl)cyclopropane-1-carboxylic acid]
100 to 1000 nM | N#CC1CC=C(c2nccn3ncc(-c4ccc(OCC(F)(F)F)c(F)c4)c23)CC1 (stereo not shown) [Compound P-0037, 4-(3-(3-fluoro-4-(2,2,2-trifluoro-ethoxy)phenyl)pyrazolo[1,5-a]pyrazin-4-yl)cyclohex-3-ene-1-carbonitrile]
100 to 1000 nM | CC(C)(O)Cn1cc(-c2ccc(-c3cnn4cccc(C#CC(C)(C)C(=O)O)c34)cc2)cn1 [Compound P-0093, 4-(3-(4-(1-(2-hydroxy-2-methylpropyl)-1H-pyrazol-4-yl)phenyl)pyrazolo[1,5-a]pyridin-4-yl)-2,2-dimethylbut-3-ynoic acid]
100 to 1000 nM | O=C(O)C1CC=C(c2cccn3ncc(-c4ccc(-n5ccnn5)cc4)c23)CC1 (stereo not shown) [Compound P-0212, 4-(3-(4-(1H-1,2,3-triazol-1-yl)phenyl)pyrazolo[1,5-a]pyridin-4-yl)cyclohex-3-ene-1-carboxylic acid]
0.1 to 100 nM | Cc1cc(-c2ccc(-c3cnc4[nH]ccc4c3N3CCC(C#N)CC3)cc2)n[nH]1 [Compound P-0175, 1-(5-(4-(5-methyl-1H-pyrazol-3-yl)phenyl)-1H-pyrrolo[2,3-b]pyridin-4-yl)piperidine-4-carbonitrile]
